What was measured:
[1] = biological target: T1, cGMP-dependent protein kinase 1 (Homo sapiens) (UniProt Q13976); test: Selectivity interaction (KinomeScan (DiscoverX)) EUB0001049a PRKG1; conditions: at 1 µM
T1 sequence (whole entry): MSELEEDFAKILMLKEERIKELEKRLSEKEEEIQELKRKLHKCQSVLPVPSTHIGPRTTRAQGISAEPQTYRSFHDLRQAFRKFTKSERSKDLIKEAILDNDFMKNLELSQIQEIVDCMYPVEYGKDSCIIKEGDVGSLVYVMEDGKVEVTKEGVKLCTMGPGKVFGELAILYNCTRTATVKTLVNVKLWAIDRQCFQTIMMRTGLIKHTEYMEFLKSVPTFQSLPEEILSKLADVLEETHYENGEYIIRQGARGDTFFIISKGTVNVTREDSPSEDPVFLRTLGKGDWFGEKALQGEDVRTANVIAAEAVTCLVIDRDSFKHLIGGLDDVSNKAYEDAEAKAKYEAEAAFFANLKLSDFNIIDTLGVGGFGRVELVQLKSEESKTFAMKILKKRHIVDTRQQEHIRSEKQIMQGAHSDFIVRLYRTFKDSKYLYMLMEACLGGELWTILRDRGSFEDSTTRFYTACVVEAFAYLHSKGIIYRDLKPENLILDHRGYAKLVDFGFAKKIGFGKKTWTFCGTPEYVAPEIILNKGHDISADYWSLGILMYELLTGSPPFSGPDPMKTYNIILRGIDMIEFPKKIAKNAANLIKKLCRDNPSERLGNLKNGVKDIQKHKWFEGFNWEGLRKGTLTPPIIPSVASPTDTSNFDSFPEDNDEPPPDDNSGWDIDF

[2] = biological target: Bone morphogenetic protein receptor type-1A (Homo sapiens, UniProt P36894); test: Selectivity interaction (Kinase panel (Invitrogen)) EUB0000639a BMPR1A; conditions: at 200 nM
[3] = biological target: T2, Dual specificity mitogen-activated protein kinase kinase 3 (Homo sapiens) (UniProt P46734); test: Selectivity interaction (ActivX KiNativ screen (kinase selectivity in THP-1 cell lysates)) EUB0000639a MAP2K3; assay type: subcellular; conditions: lysate, at 0.01 µM
T2 sequence (whole entry): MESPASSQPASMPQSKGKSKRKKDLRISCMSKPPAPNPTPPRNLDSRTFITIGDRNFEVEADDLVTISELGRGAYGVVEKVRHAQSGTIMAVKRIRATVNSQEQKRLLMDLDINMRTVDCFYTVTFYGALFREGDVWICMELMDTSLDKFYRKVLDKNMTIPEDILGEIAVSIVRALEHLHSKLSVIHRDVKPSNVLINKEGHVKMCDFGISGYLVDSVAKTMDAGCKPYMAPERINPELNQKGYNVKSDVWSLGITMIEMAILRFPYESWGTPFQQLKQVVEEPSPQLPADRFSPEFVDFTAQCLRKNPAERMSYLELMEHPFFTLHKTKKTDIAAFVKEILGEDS

[4] = biological target: Protein arginine N-methyltransferase 1 (Homo sapiens, UniProt Q99873); test: Selectivity interaction (Scintillation proximity assays) EUB0000255b PRMT1
[5] = biological target: T3, Muscle, skeletal receptor tyrosine-protein kinase (Homo sapiens) (UniProt O15146); conditions: at 10 µM
T3 sequence (whole entry): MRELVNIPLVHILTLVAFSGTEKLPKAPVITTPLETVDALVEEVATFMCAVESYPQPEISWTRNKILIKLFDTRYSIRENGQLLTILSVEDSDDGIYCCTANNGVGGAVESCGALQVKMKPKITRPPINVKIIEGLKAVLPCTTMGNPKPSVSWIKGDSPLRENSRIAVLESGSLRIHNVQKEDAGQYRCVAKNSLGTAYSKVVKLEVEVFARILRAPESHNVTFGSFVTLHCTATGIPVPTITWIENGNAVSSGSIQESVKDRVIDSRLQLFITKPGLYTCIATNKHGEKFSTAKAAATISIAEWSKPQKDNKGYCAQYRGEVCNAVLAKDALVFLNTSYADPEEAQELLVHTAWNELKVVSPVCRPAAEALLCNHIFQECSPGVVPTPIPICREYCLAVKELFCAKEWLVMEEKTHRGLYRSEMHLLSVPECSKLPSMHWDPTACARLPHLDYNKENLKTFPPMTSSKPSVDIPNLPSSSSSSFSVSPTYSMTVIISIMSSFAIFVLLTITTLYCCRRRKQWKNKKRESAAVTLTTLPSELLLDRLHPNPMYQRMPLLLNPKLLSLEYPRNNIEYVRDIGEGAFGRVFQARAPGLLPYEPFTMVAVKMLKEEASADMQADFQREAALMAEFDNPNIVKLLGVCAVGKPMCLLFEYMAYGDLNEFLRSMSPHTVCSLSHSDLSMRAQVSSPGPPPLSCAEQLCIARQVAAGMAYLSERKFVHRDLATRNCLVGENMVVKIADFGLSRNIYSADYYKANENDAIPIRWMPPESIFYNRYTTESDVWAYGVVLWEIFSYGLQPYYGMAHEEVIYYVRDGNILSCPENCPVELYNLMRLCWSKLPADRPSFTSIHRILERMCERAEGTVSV

[6] = biological target: T4, Non-receptor tyrosine-protein kinase TNK1 (Homo sapiens) (UniProt Q13470); test: Selectivity interaction (KinomeScan (DiscoverX)) EUB0001619a TNK1; conditions: at 1 µM
T4 sequence (whole entry): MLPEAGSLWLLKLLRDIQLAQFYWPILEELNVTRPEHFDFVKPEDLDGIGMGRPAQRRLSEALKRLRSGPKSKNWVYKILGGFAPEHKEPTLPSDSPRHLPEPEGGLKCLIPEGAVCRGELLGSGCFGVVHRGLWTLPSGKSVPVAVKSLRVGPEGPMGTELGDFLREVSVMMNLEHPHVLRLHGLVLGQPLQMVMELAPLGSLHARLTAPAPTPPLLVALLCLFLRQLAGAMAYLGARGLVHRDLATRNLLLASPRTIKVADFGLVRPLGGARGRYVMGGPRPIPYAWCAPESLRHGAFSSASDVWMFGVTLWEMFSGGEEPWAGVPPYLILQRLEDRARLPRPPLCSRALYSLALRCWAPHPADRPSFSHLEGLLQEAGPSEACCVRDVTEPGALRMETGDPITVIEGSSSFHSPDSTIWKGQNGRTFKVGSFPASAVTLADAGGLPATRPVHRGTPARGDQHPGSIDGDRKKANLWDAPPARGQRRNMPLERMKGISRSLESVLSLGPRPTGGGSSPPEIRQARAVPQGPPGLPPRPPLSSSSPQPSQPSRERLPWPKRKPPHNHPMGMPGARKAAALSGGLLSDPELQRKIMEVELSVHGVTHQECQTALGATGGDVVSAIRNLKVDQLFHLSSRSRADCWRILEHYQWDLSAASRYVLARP

[7] = biological target: Mitogen-activated protein kinase kinase kinase 20 (Homo sapiens) (UniProt Q9NYL2); test: Selectivity interaction (ActivX KiNativ screen (ex vivo kinase selectivity in human PBMCs)) EUB0001619a MAP3K20; assay type: cell-based; conditions: PBMC, at 1 µM
[8] = biological target: Fibroblast growth factor receptor 3 (Homo sapiens, UniProt P22607); test: (§1) Selectivity interaction (Kinase panel (Z-LYTE Assay)) EUB0001632a FGFR3; conditions: at 10 µM
[9] = test system: Fibroblast growth factor receptor 3 (Homo sapiens), P22607 [K650E]; test: as §1; conditions: at 10 µM
Chain of Fibroblast growth factor receptor 3 (Homo sapiens), P22607 [K650E] (P22607 whole entry K650E): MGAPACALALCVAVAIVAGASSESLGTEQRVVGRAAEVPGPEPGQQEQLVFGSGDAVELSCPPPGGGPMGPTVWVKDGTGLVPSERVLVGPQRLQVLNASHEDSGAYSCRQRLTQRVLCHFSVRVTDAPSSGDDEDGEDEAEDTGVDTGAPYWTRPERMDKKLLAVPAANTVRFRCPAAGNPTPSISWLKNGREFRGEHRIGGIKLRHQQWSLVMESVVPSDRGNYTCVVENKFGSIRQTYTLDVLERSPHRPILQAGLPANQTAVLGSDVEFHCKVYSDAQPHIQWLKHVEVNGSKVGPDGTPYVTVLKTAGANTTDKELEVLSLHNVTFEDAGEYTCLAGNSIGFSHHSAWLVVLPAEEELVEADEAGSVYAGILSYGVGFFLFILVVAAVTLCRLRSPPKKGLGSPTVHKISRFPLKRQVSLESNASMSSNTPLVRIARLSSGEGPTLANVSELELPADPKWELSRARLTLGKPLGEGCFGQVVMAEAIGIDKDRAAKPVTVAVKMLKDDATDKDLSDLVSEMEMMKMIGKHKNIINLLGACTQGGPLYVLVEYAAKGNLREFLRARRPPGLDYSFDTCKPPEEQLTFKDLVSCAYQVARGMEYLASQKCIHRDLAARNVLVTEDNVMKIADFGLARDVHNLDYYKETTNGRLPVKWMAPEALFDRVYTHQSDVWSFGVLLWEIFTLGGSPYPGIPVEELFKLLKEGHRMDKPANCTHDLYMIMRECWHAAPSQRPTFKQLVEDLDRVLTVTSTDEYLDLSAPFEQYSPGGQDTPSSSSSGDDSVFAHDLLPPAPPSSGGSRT

Chain of Bone morphogenetic protein receptor type-1A (P36894 whole entry): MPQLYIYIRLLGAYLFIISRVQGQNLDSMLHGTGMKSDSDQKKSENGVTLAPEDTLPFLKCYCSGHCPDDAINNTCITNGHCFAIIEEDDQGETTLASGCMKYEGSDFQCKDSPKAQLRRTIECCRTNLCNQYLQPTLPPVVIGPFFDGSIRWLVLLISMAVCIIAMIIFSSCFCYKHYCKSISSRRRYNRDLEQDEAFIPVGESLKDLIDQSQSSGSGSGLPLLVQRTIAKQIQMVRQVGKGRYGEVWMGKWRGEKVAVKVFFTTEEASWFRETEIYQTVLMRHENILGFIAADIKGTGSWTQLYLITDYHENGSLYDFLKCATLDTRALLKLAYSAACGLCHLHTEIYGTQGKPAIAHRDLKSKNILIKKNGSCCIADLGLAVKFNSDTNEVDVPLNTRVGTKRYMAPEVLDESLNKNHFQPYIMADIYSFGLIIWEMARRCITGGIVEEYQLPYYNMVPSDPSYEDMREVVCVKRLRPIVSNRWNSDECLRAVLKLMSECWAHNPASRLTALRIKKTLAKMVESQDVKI
Chain of Mitogen-activated protein kinase kinase kinase 20 (Homo sapiens) (Q9NYL2 2-800 limits assumed): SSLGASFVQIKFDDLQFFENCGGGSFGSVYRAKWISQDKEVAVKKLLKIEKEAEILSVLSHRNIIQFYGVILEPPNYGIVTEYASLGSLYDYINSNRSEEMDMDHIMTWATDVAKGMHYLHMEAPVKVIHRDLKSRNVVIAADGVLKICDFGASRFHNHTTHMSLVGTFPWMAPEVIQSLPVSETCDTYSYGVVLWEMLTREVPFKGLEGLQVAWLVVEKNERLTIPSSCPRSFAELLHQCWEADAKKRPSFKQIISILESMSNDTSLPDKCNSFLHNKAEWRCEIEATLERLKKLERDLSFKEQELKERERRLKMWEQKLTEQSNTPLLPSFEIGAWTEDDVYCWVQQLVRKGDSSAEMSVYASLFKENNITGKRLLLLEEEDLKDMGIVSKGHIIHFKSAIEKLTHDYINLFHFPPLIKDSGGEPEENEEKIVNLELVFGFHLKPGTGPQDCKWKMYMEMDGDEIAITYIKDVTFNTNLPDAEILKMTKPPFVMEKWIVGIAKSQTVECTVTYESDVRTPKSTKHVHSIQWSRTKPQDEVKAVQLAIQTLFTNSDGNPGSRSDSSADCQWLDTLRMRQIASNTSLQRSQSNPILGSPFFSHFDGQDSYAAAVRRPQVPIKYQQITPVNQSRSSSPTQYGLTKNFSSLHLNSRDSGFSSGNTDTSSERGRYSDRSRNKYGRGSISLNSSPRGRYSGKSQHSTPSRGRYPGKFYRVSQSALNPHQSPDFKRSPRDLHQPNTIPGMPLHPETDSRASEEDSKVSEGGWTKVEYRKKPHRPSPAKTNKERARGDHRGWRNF
Chain of Protein arginine N-methyltransferase 1 (Q99873 whole entry): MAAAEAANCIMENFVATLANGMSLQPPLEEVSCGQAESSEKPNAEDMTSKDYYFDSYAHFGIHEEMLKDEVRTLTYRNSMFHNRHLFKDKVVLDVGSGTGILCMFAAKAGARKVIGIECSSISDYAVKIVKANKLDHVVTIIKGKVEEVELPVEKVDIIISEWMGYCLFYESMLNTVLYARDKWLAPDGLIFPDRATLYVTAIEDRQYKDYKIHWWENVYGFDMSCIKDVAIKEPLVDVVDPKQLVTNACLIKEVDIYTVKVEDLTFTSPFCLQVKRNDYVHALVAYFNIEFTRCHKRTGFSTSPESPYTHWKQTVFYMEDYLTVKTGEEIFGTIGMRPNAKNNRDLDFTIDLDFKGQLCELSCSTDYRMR
Chain of Fibroblast growth factor receptor 3 (P22607 23-806 limits assumed): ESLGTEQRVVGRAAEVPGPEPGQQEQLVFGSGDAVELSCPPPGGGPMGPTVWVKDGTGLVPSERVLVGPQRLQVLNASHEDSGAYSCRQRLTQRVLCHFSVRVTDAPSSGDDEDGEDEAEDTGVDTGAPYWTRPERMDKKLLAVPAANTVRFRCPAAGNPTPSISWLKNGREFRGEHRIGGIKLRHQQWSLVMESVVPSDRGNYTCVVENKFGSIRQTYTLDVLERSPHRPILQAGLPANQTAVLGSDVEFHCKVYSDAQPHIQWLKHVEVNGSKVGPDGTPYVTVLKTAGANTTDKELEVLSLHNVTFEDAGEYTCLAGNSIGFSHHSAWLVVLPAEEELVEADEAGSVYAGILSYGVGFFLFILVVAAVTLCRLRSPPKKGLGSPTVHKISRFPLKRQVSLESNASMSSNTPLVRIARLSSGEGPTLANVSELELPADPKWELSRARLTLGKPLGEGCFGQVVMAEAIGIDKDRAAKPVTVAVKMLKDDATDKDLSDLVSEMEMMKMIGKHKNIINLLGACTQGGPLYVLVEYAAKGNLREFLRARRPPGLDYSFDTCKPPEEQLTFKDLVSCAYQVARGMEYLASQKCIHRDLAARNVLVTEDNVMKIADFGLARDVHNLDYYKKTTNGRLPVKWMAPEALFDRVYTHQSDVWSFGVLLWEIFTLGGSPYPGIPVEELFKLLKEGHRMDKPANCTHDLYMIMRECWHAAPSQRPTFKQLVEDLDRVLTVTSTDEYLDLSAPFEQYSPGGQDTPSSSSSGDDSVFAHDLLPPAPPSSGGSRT

Q: How did the % of control [1] turn out when `COc1cc(Nc2nc(C)cc(-c3cnn4nc(OC)ccc34)n2)cc(C(F)(F)F)c1` was run?
A: The % of control was 92%.

Q: What does the source list for `CC[C@@H]1[C@H](F)C(=O)N[C@@H]1COc1nccc2cc(C(N)=O)c(OC)cc12` [ZIMLOVISERTIB]?
A: % of inhibition [2]: 20.8%; % of inhibition [3]: 9%

Q: With `COCCN1CCC(c2cc(CN(C)C(=O)c3cccc(Oc4ccccc4)c3)ccn2)CC1` as the compound, how does the IC50 [4] read?
A: The IC50 was over 10 µM.

Q: For `Cc1cc([C@@H](C)Nc2ccccc2C(=O)O)c2nc(N3CCOCC3)cc(=O)n2c1` [AZD-6482], which % of control [5] is on record?
A: The % of control was 100%.

Q: Which % of control [6] does the source give for `N#Cc1cccc(-c2c[nH]c3ncnc(N4CCOCC4)c23)c1` here?
A: Its % of control is 32%.

Q: What about the % of inhibition [7] of the same compound?
A: The % of inhibition was -42%.

Q: `Cn1cc(-n2cnc3c(NCc4nc5cc(Cl)c(Cl)cc5[nH]4)nc(N4CCOCC4)nc32)cn1` was tested. Which % of control [8] did it give?
A: The % of control was 4.08%.

Q: What about the % of control [9] of the same compound?
A: Its % of control is 19.3%.
